Values quoted from earlier work as cited in patent US11946927B2, “Process and system for identifying individuals having a high risk of inflammatory bowel disease and a method of treatment” (MUSIDORA BIOTECHNOLOGY LLC, priority 2016, dated 2024).

Tested on: patients with active UC

In the case of `Nc1ccc(O)c(C(=O)O)c1` [mesalamine], the “efficacy of mesalamine in active UC” value (active UC, first-line conventional clinical treatment) is given as 30-40% and the clinical treatment failures (mesalamine used to treat active UC, patients with moderate UC, compared to 80% treated with placebo) is given as 60 % of patients.
